From article PMC12470104, “The Achilles Heel of Protein Biochemistry: Insolubility of Recombinant Proteins—A Case Study About Producing a Rice Enzyme” (International Journal of Molecular Sciences, 2025)

Tested on: T1, OsAPSE
T1 construct: GH27 42-387, ricin-B-like 498-563, GH-all-beta 563-649; catalytic D226, D282
Assay: discontinuous pNP release assay, A405; Hanes-Woolf and Eadie-Hofstee
Assay type: biochemical, Oryza sativa subsp. japonica
Settings: 50 mM Tris-HCl pH 8, 25 °C; 50 µg/mL enzyme; protein refolded from inclusion bodies (authors suspect suboptimal folding); 1-20 mM substrate, Km extrapolated above tested range

## O=[N+]([O-])c1ccc(O[C@H]2O[C@H](CO)[C@H](O)[C@H](O)[C@H]2O)cc1 [pNP-α-D-Galp]
  Km: 44 mM
